Measured values: ChEMBL document CHEMBL1201862, “PubChem BioAssay data set” (2004)
The source made the active and inactive calls.

Experiments:
Fibrinogen beta chain [1] = biological target: T1, Fibrinogen beta chain (Homo sapiens, UniProt P02675); test: Fluorescence polarization-based biochemical high throughput dose response assay to identify inhibitors that disrupt the binding of a cyclic peptide (Tn6) to the fibrin proteolytic product D-Dimer and fragment E complex [DD(E )].
[2] = biological target: T2, Heat shock factor protein 1 (Mus musculus, UniProt P38532); test: HSF1 potentiators in luciferase reporter cells, confirmation, cell-based, NIH3T3, luminescence, dose retest (AID 435004); type: functional;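 also: stress induced by proteasome inhibitor MG132 added 30 min after compound; luciferase reporter driven by HSF1 response element in NIH3T3 cells; actives raise luminescence as potentiators of the MG132 stress response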
T2 sequence (P38532 whole entry): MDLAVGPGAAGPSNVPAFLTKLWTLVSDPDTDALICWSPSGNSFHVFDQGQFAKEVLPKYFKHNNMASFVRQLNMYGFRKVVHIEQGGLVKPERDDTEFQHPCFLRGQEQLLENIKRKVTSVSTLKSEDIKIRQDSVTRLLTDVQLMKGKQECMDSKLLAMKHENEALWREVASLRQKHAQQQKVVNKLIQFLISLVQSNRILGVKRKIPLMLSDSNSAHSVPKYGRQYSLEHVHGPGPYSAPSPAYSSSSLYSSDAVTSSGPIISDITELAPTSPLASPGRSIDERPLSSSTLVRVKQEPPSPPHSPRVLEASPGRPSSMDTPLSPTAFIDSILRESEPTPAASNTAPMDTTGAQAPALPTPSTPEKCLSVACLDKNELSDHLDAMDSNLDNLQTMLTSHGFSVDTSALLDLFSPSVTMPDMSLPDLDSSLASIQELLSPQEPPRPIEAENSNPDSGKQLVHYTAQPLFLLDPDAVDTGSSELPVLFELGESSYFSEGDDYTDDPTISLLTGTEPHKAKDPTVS

[3] = biological target: Peroxisome proliferator-activated receptor gamma/Nuclear receptor coactivator 3 (Homo sapiens, UniProt P37231); test: (§1) TR-FRET dose response biochemical High Throughput Screening assay for agonists of the steroid receptor coactivator 3 (SRC-3) recruitment by the peroxisome proliferator-activated receptor gamma (PPAR gamma): non-selective agonists. [Related pubchem assays: 1301 (Confirmation screen.), 1048 (Primary screen.)]; type: functional
Sequence of Peroxisome proliferator-activated receptor gamma/Nuclear receptor coactivator 3 (P37231 whole entry): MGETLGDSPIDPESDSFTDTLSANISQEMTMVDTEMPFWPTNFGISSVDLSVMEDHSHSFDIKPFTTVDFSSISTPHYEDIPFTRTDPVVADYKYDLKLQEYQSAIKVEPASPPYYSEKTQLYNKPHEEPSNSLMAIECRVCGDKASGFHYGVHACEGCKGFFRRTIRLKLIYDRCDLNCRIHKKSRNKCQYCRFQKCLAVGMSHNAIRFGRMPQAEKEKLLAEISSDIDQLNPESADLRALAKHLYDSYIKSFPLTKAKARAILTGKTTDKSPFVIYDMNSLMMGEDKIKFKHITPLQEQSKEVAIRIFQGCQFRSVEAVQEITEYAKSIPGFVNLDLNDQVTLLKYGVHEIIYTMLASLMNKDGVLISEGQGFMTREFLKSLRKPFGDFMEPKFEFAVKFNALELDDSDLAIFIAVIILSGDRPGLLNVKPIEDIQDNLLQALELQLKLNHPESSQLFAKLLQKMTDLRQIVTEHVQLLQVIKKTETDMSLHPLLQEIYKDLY
Sequence of Peroxisome proliferator-activated receptor gamma/Nuclear receptor coactivator 3 (Q9Y6Q9 whole entry, further chain): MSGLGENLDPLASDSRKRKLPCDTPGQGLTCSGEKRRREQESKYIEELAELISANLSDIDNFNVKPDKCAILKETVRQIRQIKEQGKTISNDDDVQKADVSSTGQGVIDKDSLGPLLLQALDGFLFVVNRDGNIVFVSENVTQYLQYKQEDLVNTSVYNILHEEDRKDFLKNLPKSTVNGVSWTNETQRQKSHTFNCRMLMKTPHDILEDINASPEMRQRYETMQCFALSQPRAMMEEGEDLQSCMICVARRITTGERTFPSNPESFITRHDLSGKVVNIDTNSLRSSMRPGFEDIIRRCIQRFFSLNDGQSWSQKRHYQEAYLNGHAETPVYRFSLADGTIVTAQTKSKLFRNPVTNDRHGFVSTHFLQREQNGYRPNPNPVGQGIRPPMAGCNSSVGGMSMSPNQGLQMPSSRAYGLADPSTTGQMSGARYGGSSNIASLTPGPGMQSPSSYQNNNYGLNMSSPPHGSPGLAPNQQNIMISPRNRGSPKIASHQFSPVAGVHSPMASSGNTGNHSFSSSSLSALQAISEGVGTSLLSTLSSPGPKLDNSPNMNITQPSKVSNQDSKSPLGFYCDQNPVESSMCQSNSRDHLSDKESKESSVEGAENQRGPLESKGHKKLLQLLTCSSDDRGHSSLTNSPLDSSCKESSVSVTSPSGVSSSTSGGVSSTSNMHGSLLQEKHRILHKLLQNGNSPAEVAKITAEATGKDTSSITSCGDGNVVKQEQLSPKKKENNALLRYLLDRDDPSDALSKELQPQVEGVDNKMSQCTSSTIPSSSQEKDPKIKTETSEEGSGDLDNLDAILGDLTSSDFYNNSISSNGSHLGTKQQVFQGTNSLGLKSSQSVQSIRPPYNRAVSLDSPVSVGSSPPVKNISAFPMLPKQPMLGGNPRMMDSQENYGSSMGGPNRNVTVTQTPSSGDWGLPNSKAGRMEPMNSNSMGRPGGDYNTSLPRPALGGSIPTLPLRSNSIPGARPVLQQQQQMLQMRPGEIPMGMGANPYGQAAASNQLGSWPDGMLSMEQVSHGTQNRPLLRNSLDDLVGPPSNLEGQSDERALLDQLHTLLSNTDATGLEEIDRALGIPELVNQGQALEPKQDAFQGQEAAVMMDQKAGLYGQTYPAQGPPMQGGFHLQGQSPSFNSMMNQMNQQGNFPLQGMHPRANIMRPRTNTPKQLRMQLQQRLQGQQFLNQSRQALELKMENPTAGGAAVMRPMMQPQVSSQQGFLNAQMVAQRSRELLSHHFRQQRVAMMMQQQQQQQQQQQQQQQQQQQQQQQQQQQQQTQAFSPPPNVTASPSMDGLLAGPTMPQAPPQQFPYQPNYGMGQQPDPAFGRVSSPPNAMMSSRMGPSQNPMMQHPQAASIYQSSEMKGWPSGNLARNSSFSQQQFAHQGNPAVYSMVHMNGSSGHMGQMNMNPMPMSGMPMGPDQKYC

[4] = biological target: Peroxisome proliferator-activated receptor gamma/Nuclear receptor coactivator 1 (Homo sapiens, UniProt P37231); test: as §1, with “1 (SRC-1)” for “3 (SRC-3)”, “assays (depositor defined):AID1300, AID1808, AID504735, AID631]” for “assays: 1301 (Confirmation screen.), 1048 (Primary screen.)]”; type: protein assay
[5] = biological target: Peroxisome proliferator-activated receptor gamma/Nuclear receptor coactivator 2 (Homo sapiens, UniProt P37231); test: TR-FRET dose response biochemical High Throughput Screening assay for agonists of the steroid receptor coactivator 2 (SRC-2) recruitment by the peroxisome proliferator-activated receptor gamma (PPAR gamma): non-selective agonists. [Related pubchem assays: 1297, 1032 ]; type: functional
Sequence of Peroxisome proliferator-activated receptor gamma/Nuclear receptor coactivator 2 (P37231 whole entry): as the sequence (P37231 whole entry) above
Sequence of Peroxisome proliferator-activated receptor gamma/Nuclear receptor coactivator 2 (Q15596 whole entry, further chain): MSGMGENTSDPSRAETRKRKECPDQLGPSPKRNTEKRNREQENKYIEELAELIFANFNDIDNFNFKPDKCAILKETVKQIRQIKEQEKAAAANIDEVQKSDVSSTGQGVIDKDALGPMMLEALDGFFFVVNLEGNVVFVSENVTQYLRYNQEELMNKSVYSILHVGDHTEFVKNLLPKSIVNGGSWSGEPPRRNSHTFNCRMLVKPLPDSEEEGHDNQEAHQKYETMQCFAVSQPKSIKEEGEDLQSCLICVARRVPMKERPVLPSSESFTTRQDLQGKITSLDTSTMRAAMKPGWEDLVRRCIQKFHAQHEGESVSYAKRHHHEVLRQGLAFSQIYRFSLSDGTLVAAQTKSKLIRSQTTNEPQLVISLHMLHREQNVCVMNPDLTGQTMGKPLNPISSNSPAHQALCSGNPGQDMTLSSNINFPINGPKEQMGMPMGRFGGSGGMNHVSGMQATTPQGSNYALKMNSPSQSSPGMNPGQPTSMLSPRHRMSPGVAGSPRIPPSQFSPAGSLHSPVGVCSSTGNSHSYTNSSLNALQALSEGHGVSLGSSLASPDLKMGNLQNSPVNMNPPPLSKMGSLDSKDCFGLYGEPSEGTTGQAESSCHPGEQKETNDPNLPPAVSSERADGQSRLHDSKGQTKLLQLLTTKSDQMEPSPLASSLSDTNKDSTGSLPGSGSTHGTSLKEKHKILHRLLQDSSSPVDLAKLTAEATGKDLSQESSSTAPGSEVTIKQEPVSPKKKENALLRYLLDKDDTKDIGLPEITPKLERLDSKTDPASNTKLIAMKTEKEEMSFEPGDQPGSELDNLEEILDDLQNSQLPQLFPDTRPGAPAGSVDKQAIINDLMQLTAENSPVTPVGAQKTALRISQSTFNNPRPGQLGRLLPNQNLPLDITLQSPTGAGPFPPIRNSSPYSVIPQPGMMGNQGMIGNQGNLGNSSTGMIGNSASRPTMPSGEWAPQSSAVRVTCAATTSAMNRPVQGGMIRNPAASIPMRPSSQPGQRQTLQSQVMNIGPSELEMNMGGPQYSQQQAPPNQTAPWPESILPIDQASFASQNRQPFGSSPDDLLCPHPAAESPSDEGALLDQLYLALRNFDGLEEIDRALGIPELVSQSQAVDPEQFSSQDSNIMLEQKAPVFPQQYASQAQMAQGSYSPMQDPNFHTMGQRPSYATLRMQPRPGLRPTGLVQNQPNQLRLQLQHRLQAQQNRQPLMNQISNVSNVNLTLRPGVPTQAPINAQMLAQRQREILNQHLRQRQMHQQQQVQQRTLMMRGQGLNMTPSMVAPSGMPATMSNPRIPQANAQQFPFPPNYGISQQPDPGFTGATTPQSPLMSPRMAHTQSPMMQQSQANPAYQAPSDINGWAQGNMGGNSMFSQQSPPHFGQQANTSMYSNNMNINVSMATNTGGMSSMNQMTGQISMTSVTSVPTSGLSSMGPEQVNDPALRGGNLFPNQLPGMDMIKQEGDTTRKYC

[6] = biological target: SWI/SNF-related matrix-associated actin-dependent regulator of chromatin subfamily A member 2 (Homo sapiens, UniProt P51531); test: Luminescence-based cell-based high throughput dose response assay to identify activators of the function of SWI/SNF related, matrix associated, actin dependent regulator of chromatin, subfamily a, member 2 (SMARCA2, BRM).; type: functional
[7] = Counterscreen for activators of the function of SWI/SNF related, matrix associated, actin dependent regulator of chromatin, subfamily a, member 2 (SMARCA2, BRM): Luminescence-based cell-based high throughput dose response assay to identify non-selective compounds using the VP16 reporter assay.; type: functional
Nonstructural protein 1 = Nonstructural protein 1 (Influenza A virus, UniProt Q194T2); type: functional, Influenza A virus (A/California/07/2009(H1N1))
Sequence of Nonstructural protein 1 (Q194T2 whole entry, the tested form may be a part): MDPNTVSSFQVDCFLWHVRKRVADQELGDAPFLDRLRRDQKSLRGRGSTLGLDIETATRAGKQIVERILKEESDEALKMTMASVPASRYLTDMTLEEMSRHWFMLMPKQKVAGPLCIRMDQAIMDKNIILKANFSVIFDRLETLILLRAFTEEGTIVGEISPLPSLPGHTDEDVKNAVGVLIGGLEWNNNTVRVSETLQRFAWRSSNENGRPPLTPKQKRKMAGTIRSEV

Fibrinogen beta chain [8] = biological target: T1, Fibrinogen beta chain; test: Fluorescence polarization-based biochemical high throughput dose response assay to identify inhibitors that disrupt the binding of a cyclic peptide (Tn7) to the fibrin proteolytic product D-Dimer and fragment E complex [DD(E )].
[9] = biological target: T3, Oxysterols receptor LXR-beta (Homo sapiens, UniProt P55055); type: functional, cell-based;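 also: Cell-based luminescence dose-response assay of agonist activity at LXR, run as a confirmatory counterscreen to a daf-12 agonist screen; HEK293 cells with Gal4-LXR fusion and GAL4-driven luciferase reporter; agonist potency from rising luciferase signal of a Gal4-LXR reporter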
T3 sequence (P55055 whole entry): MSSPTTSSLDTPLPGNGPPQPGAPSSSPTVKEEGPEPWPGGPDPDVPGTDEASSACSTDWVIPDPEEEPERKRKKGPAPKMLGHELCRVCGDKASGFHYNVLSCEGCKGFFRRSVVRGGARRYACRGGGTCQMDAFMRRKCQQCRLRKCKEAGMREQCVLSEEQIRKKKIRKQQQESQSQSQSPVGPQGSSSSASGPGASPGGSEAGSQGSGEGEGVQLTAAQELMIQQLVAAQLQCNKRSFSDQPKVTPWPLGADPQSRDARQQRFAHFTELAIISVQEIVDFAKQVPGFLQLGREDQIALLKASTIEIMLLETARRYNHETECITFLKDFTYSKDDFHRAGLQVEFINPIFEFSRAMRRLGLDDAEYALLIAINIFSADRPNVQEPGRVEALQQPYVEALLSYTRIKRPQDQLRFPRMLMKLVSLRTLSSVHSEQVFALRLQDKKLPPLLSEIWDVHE

H4 = test: Luminescence Cell-Based Dose Response HTS to Identify Activators of 5'UTR Stem-Loop Driven Prion Protein mRNA Translation in H4 Neuroglioblastoma Cells. [Related pubchem assays: 1829 (Project Summary), 1814 (Primary HTS)]; type: functional; details: Homo sapiens
cells [10] = test: cells
[11] = biological target: G-protein coupled receptor 183 (Homo sapiens, UniProt P32249); test: SAR confirmation of small molecule antagonists of the EBI2 receptor via a luminescent beta-arrestin assa.; type: functional
Sequence of G-protein coupled receptor 183 (P32249 whole entry): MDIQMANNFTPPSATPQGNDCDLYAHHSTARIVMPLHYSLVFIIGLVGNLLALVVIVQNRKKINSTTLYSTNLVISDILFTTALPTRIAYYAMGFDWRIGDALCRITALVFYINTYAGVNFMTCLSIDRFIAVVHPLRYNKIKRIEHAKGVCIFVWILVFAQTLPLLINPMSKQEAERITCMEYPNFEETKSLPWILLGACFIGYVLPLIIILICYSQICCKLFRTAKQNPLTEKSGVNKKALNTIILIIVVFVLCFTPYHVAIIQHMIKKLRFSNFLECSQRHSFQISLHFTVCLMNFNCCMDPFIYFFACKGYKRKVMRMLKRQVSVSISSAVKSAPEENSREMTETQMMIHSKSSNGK

[12] = P. falciparum Dd2 growth inhibitors, dose response, SYBR Green, dry powder samples, set 9 (AID 1159568); type: functional, cell-based
[13] = biological target: T4, Methionyl-tRNA synthetase, putative (Trypanosoma brucei brucei, UniProt Q38C91); type: functional, Trypanosoma brucei brucei strain 927/4 GUTat10.1
T4 sequence (Q38C91 whole entry): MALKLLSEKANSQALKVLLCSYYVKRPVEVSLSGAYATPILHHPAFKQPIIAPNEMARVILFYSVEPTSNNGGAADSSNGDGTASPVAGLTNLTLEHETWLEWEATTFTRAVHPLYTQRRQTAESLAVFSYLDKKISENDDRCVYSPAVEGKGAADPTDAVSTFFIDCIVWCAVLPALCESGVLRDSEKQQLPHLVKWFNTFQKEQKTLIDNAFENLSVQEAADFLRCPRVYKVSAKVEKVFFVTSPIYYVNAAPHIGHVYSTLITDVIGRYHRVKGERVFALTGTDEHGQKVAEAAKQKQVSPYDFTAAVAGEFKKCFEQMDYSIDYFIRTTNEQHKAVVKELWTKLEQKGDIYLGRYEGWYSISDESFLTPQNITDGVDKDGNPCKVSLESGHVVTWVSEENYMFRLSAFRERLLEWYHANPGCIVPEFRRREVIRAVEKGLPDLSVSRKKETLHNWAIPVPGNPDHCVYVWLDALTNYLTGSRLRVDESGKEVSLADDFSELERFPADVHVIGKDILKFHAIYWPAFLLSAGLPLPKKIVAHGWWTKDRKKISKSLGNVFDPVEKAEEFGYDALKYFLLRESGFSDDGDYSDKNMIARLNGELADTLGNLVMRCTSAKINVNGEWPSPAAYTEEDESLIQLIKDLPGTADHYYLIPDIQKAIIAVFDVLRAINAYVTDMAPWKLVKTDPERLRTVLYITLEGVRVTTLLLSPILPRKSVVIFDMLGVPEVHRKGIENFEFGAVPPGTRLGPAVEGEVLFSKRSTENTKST

[14] = Late stage counterscreen for inhibitors of Trypanosoma brucei methionyl tRNA synthetase (MetRS): Luminescence-based cell-based high throughput dose response assay to identify compounds that are cytotoxic to Jurkat human T lymphocyte cells.; type: functional
[15] = biological target: T4, Methionyl-tRNA synthetase, putative; type: functional, Trypanosoma brucei brucei strain 927/4 GUTat10.1; remark: listed apart in the source
[16] = Counterscreen for inhibitors of Trypanosoma brucei methionyl tRNA synthetase (MetRS): Luminescence-based cell-based high throughput dose response assay to identify compounds that are cytotoxic to Jurkat human T lymphocyte cells.; type: functional
[17] = Dose-response inhibition of insulin secretion in a rat insulinoma line at 5 mM glucose (AID 1117331); type: functional, cell-based; details: INS-1E
cells [18] = type: functional, cell-based; details: INS-1E

T1 sequence (P02675 whole entry, the tested form may be a part): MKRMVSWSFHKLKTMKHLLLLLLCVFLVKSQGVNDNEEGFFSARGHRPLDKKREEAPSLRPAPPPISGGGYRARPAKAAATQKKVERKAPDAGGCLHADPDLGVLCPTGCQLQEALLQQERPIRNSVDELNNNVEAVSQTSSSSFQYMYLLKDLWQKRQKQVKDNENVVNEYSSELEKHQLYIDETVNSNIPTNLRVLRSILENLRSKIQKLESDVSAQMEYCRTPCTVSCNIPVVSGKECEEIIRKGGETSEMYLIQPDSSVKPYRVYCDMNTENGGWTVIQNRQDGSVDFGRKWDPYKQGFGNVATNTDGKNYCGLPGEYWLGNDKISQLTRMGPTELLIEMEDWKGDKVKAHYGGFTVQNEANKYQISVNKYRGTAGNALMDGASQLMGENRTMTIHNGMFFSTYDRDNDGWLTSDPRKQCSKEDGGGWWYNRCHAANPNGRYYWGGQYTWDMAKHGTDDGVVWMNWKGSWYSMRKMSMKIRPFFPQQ

**Q.** Which IC50 (Fibrinogen beta chain [1]) does the source give for COc1ccc(N)c2c1C(=O)c1ccccc1C2=O here?
**A.** The IC50 was 4.98 µM (active).

**Q.** And the EC50 [2]?
**A.** The EC50 was > 260 µM (inactive).

**Q.** What about the EC50 [3] of the same molecule?
**A.** The EC50 was 119 µM (not active).

**Q.** What about the EC50 [4] of the same molecule?
**A.** The EC50 was 20.2 µM (inactive).

**Q.** And the EC50 [5]?
**A.** Its EC50 is 10.7 µM (not active).

**Q.** What about the EC50 [6] of the same molecule?
**A.** The EC50 was > 91.1 µM (inactive).

**Q.** What about the EC50 [7] of the same molecule?
**A.** Its EC50 is > 91.1 µM (inactive).

**Q.** And the IC50 (Nonstructural protein 1)?
**A.** The IC50 was 31 µM (active).

**Q.** And the IC50 (Fibrinogen beta chain [8])?
**A.** Its IC50 is > 83.2 µM (inactive).

**Q.** For C/C(=N\Nc1nc2c(s1)CCCC2)c1ccccc1, which EC50 [9] is on record?
**A.** The EC50 was > 67.5 µM (inactive).

**Q.** And the EC50 (H4)?
**A.** The EC50 was 5.13 µM (active).

**Q.** What about the EC50 (cells [10]) of the same molecule?
**A.** Its EC50 is > 67.5 µM (inactive).

**Q.** For COc1ccc(S(=O)(=O)N2CCN(C(=O)/C=C/c3ccc(F)cc3)CC2)cc1, which IC50 [11] is on record?
**A.** Its IC50 is 12.1 nM (active).

**Q.** Which AC50 [12] does the source give for C[C@H](CO)N1C[C@H](C)[C@@H](CN(C)S(=O)(=O)c2ccc(F)cc2)OCCCC[C@H](C)Oc2ccc(N(C)C)cc2C1=O here?
**A.** Its AC50 is 5.9 µM (active).

**Q.** With COc1cccc(NC(=O)CSc2n[nH]c3c4cc(C)ccc4nc-3n2)c1 as the molecule, how does the IC50 [13] read?
**A.** Its IC50 is 48.3 nM (active).

**Q.** What about the IC50 [14] of the same molecule?
**A.** Its IC50 is > 83.3 µM (inactive).

**Q.** What about the IC50 [15] of the same molecule?
**A.** Its IC50 is 101 nM (active).

**Q.** And the IC50 [16]?
**A.** The IC50 was 83.3 µM (inactive).

**Q.** For c1cc(CN2CCCCC2)cc(OCCCNc2nc3ccccc3s2)c1, which IC50 [17] is on record?
**A.** Its IC50 is > 11.1 µM (inactive).

**Q.** What about the IC50 (cells [18]) of the same molecule?
**A.** The IC50 was > 33.3 µM (inactive).
